According to US8309718B2, “4-pyrazolyl-N-arylpyrimidin-2-amines and 4-pyrazolyl-N-heteroarylpyrimidin-2-amines as janus kinase inhibitors” (Incyte Corporation, priority 2007, dated 2012):

biological target: T1, human JAK2 (Homo sapiens, UniProt O60674); assay: In vitro JAK kinase assay (HTRF, phosphorylation of biotinylated peptide); assay type: biochemical; conditions: catalytic domain a.a. 828-1132, 30 μM ATP, 500 nM peptide, room temperature 1 hr; read-out: JAK-2 IC50
T1 construct: JAK2 (a.a. 828-1132); His tag (N); made in house; host or cells: insect cells (baculovirus)
Outline: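 IC50 from HTRF detection (Eu-Py20 antibody, SA-APC) of biotinylated-peptide phosphorylation (500 nM), run 1 h at RT. Enzyme: N-His human JAK2 kinase domain a.a. 828-1132 from insect cells; ATP 30 μM; buffer 50 mM Tris pH 7.8 with NaCl, DTT, BSA.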

T1 sequence (O60674 828-1132): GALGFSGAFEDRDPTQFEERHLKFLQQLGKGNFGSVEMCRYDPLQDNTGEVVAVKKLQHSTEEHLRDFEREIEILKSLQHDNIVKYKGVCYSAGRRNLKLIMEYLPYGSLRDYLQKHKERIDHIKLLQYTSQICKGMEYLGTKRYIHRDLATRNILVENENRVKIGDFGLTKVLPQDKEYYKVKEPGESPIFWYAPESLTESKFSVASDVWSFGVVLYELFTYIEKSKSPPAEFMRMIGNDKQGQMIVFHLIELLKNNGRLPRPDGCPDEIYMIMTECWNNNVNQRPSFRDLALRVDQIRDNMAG

IC50, < 100 nM:
N#CCC1(n2cc(-c3ccnc(Nc4ccc(C(=O)N5CCOCC5)cc4)n3)cn2)CC(C#N)C1 (single isomer, unassigned) [Example 287, 3-(cyanomethyl)-3-(4-(2-(4-(morpholine-4-carbonyl)phenylamino)pyrimidin-4-yl)-1H-pyrazol-1-yl)cyclobutanecarbonitrile]
COc1cnc(Nc2cccc(C(=O)N3CC[C@H](OC)C3)c2)nc1-c1cnn(C(CC#N)C2CC2)c1 (mixture of isomers) [Example 326, 3-cyclopropyl-3-(4-{5-methoxy-2-[(3-{[(3S)-3-methoxypyrrolidin-1-yl]carbonyl}phenyl)amino]pyrimidin-4-yl}-1H-pyrazol-1-yl)propanenitrile]
N#CCC(C1CCCC1)n1cc(-c2ccnc(Nc3ccc(N4CCCS4(=O)=O)cc3)n2)cn1 (racemic) [Example 192, 3-cyclopentyl-3-(4-(2-(4-(1,1-dioxidoisothiazolidin-2-yl)phenyl)aminopyrimidin-4-yl)-1H-pyrazol-1-yl)propanenitrile]
CC(NC(=O)c1cccc(Nc2nccc(-c3cnn(C(CC#N)C4CCCC4)c3)n2)c1)c1ccccn1 (mixture of isomers) [Example 156, 3-(4-(1-(2-cyano-1-cyclopentylethyl)-1H-pyrazol-4-yl)pyrimidin-2-ylamino)-N-(1-(pyridin-2-yl)ethyl)benzamide]
COCC(C)NCC(=O)Nc1ccc(Nc2nccc(-c3cnn(C(CC#N)C4CCCC4)c3)n2)cc1 (mixture of isomers) [Example 211, N-(4-(4-(1-(2-cyano-1-cyclopentylethyl)-1H-pyrazol-4-yl)pyrimidin-2-ylamino)phenyl)-2-(1-methoxypropan-2-ylamino)acetamide]
Cc1cnc(Nc2ccc(-n3cccn3)cc2)nc1-c1cnn(C(CC#N)CC2CCN(S(=O)(=O)c3ccn(C)n3)CC2)c1 (racemic) [Example 63, 3-(4-(2-(4-(1H-pyrazol-1-yl)phenylamino)-5-methylpyrimidin-4-yl)-1H-pyrazol-1-yl)-4-(1-(1-methyl-1H-pyrazol-3-ylsulfonyl)piperidin-4-yl)butanenitrile]
COc1ccc(Nc2nccc(-c3cnn(C(CC#N)CC4CCN(C(=O)c5ccc(F)cc5F)CC4)c3)n2)cc1 (racemic) [Example 3, 4-(1-(2,4-difluorobenzoyl)piperidin-4-yl)-3-(4-(2-(4-methoxyphenylamino)pyrimidin-4-yl)-1H-pyrazol-1-yl)butanenitrile]
N#CCC(C1CCCC1)n1cc(-c2ccnc(Nc3cccc(C(=O)NCCc4cccnc4)c3)n2)cn1 (racemic) [Example 161, 3-(4-(1-(2-cyano-1-cyclopentylethyl)-1H-pyrazol-4-yl)pyrimidin-2-ylamino)-N-(2-(pyridin-3-yl)ethyl)benzamide]
N#CCC(C1CCCC1)n1cc(-c2ccnc(Nc3ccc(C(=O)N4C5CC6CC4CC(C5)O6)cc3)n2)cn1 (racemic) [Example 216, 3-cyclopentyl-3-(4-(2-(4-(2-oxa-6-azatricyclo[3.3.1.1(3,7)]dec-6-ylcarbonyl)phenyl)aminopyrimidin-4-yl)-1H-pyrazol-1-yl)propanenitrile]
N#CCC(C1CCCC1)n1cc(-c2ccnc(Nc3ccc(C(=O)N4CCNC(=O)C4)cc3)n2)cn1 (racemic) [Example 123, 3-cyclopentyl-3-(4-(2-(4-(3-oxopiperazine-1-carbonyl)phenylamino)pyrimidin-4-yl)-1H-pyrazol-1-yl)propanenitrile]
CC(=O)Nc1ccc(Nc2ncc(C)c(-c3cnn(C(CC#N)C4CCCC4)c3)n2)cc1 (racemic) [Example 76, N-(4-(4-(1-(2-cyano-1-cyclopentylethyl)-1H-pyrazol-4-yl)-5-methylpyrimidin-2-ylamino)phenyl)acetamide]
N#CCC(C1CCCC1)n1cc(-c2ccnc(Nc3ccc(C(=O)NCC4CCOCC4)cc3)n2)cn1 (racemic) [Example 214, 4-(4-(1-(2-cyano-1-cyclopentylethyl)-1H-pyrazol-4-yl)pyrimidin-2-ylamino)-N-((tetrahydro-2H-pyran-4-yl)methyl)benzamide]
N#CCC(C1CCOCC1)n1cc(-c2ccnc(Nc3ccc(N4CCOCC4)cc3)n2)cn1 (racemic) [Example 308, 3-(4-{2-[(4-morpholin-4-ylphenyl)amino]pyrimidin-4-yl}-1H-pyrazol-1-yl)-3-(tetrahydro-2H-pyran-4-yl)propanenitrile]
Cc1cnc(Nc2ccc(C(=O)N(C)C)cc2)nc1-c1cnn(C(CC#N)C2CCCC2)c1 (racemic) [Example 77, 4-(4-(1-(2-cyano-1-cyclopentylethyl)-1H-pyrazol-4-yl)-5-methylpyrimidin-2-ylamino)-N,N-dimethylbenzamide]
N#CCC1(n2cc(-c3ccnc(Nc4ccc(-n5cccn5)cc4)n3)cn2)CN(S(=O)(=O)C2CC2)C1 (racemic) [Example 17, 2-(3-(4-(2-(4-(1H-pyrazol-1-yl)phenylamino)pyrimidin-4-yl)-1H-pyrazol-1-yl)-1-(cyclopropylsulfonyl)azetidin-3-yl)acetonitrile]
CCOC(=O)N1CCC(NC(=O)c2ccc(Nc3nccc(-c4cnn(C(CC#N)C5CC5)c4)n3)cc2)CC1 (racemic) [Example 272, Ethyl 4-(4-(4-(1-(2-cyano-1-cyclopropylethyl)-1H-pyrazol-4-yl)pyrimidin-2-ylamino)benzoyl)aminopiperidine-1-carboxylate]
N#CCC(C1CCCC1)n1cc(-c2ccnc(Nc3ccc(-n4cccn4)cc3)n2)cn1 (racemic) [Example 34, 3-(4-(2-(4-(1H-pyrazol-1-yl)phenylamino)pyrimidin-4-yl)-1H-pyrazol-1-yl)-3-cyclopentylpropanenitrile]
CCS(=O)(=O)N1CC(CC#N)(n2cc(-c3ccnc(Nc4ccc(C(=O)NC5CCOCC5)cc4)n3)cn2)C1 [Example 259, 4-(4-(1-(3-(cyanomethyl)-1-(ethylsulfonyl)azetidin-3-yl)-1H-pyrazol-4-yl)pyrimidin-2-ylamino)-N-(tetrahydro-2H-pyran-4-yl)benzamide]
N#CCC1(n2cc(-c3ccnc(Nc4ccc(C(=O)NC5CCOCC5)cc4)n3)cn2)CC(C#N)C1 (single isomer, unassigned) [Example 289, 4-(4-(1-(3-cyano-1-(cyanomethyl)cyclobutyl)-1H-pyrazol-4-yl)pyrimidin-2-ylamino)-N-(tetrahydro-2H-pyran-4-yl)benzamide]
CN(C)C1CCN(C(=O)c2ccc(Nc3nccc(-c4cnn(C(CC#N)C5CCCC5)c4)n3)cc2)C1 (mixture of isomers) [Example 230, 3-cyclopentyl-3-(4-(2-(4-(3-(dimethylamino)pyrrolidine-1-carbonyl)phenylamino)pyrimidin-4-yl)-1H-pyrazol-1-yl)propanenitrile]
N#CCC(C1CCCC1)n1cc(-c2ccnc(Nc3cccc(C(=O)N4CCN(CCO)CC4)c3)n2)cn1 (racemic) [Example 138, 3-cyclopentyl-3-(4-(2-(3-(4-(2-hydroxyethyl)piperazine-1-carbonyl)phenylamino)pyrimidin-4-yl)-1H-pyrazol-1-yl)propanenitrile]
